Columns and labels:
human TPO receptor [1] = biological target: T1, human TPO receptor (Homo sapiens, UniProt P40238); experiment: Proliferation of TPO-dependent cell line UT7/EPO-mpl, MTT method (Assay Examples 1, 3, 4); assay type: cell-based; details: UT7/EPO-mpl cells; for EC50: concentration giving 50% of the maximum cell growth observed with the same compound
T1 construct: expressed in transfected cells
T1 sequence (P40238 26-635): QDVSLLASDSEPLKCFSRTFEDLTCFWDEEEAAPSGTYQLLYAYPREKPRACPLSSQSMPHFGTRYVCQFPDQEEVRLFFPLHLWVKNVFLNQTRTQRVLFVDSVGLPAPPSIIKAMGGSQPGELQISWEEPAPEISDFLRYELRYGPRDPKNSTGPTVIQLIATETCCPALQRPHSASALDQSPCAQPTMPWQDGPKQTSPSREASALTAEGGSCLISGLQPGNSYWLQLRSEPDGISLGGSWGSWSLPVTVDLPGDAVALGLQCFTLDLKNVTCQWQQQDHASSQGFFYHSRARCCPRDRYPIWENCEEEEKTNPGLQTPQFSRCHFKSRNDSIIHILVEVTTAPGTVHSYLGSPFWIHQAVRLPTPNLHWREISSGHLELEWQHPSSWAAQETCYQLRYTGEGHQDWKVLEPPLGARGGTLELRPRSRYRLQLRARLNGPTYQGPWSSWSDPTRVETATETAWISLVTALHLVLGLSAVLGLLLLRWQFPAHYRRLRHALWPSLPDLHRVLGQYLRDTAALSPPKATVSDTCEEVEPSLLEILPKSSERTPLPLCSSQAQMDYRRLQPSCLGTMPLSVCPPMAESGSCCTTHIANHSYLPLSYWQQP
Procedure: The reactivity of Synthetic Example 56, the compound of the present invention, with thrombopoietin (TPO) receptor was assayed using a human leukemic cell line, UT7/EPO-mpl.
UT7/EPO-mpl is a stable transformed cell line obtained by introducing into human leukemic cell line UT7/EPO a vector that induces expression of human TPO receptor (c-mp1) under control of a cytomegaloviral promoter by the method of Takatoku et al. (J. Biol. Chem., 272:7259-7263 (1997)). […] These two cell lines were subcultured in Iscove's modified Dulbecco's medium (IMDM; GIBCO) containing 10% fetal bovine serum (FBS; TRACE SCIENTIFIC) using a CO2 incubator (5% CO2, 37° C.).
The subcultured cells described above were washed twice with phosphate buffered saline (PBS) and suspended in IMDM containing 10% FBS at a cell density of 6×10^4 cells/ml. The cell suspension was transferred to a 96-well tissue culture plate (CORNING) in 100-μl aliquots. Then either TPO (PeproTech EC) or Synthetic Example 56 dissolved in dimethylsulfoxide (DMSO) was diluted 83-fold with IMDM containing 10% FBS and added to the aforementioned cell suspension in 20-μl aliquots. The suspension was incubated in a CO2 incubator (5% CO2, 37° C.) for 4 days. Cell proliferation was assayed according to the method of Mosmann et al. (J. Immunol. Methods, 65:55-63 (1983)). A 10-μl aliquot of 5 mg/ml MTT reagent (SIGMA) was added to each well of the tissue culture plate and the plate was incubated at 37° C. for 4 h. The formazan pigment generated was dissolved by adding 150 μl per well of 0.1 M HCl/isopropanol solution and the absorbance of the resulting pigment solution was measured at 550 nm with a 96-well microplate reader (BIO-RAD, M450).
The following Synthetic Examples were tested according to the method of Assay Example 1 to determine the maximal growth rate (efficacy), expressed by taking the value with human leukemic cell line UT7/EPO-mpl observed in the presence of 10 ng/ml TPO as 100% standard, and the concentration of each compound that yields a growth rate corresponding to 50% of the maximum cell growth observed with the same compound (EC50).
Synthetic Example 56, the compound of the present invention, and four compounds (Reference Synthetic Examples 1 to 4) described in a publication of international patent application (Publication No. WO01/34585, applied by SmithKline Beecham Corp.) were tested according to the method of Assay Example 1.

human TPO receptor [2] = biological target: T1, human TPO receptor; experiment: Proliferation of TPO-dependent cell line UT7/EPO-mpl, WST-8 reagent (Assay Example 5); assay type: cell-based; details: WST-8, 4 days; for Efficacy (%) (maximal growth rate): growth with 10 ng/ml TPO = 100%
Procedure: Human leukemic cell line UT7/EPO-mpl was washed twice with PBS and suspended in IMDM containing 10% FBS at a cell density of 6×10^4 cells/ml. The cell suspension was transferred to a 96-well tissue culture plate (CORNING) in 100-μl aliquots. Then either TPO or the following Synthetic Examples, each dissolved in DMSO, were diluted 83-fold with IMDM containing 10% FBS and added to the aforementioned cell suspension in 20-μl aliquots. The suspension was incubated in a CO2 incubator (5% CO2, 37° C.) for 4 days. Cell proliferation was assayed using WST-8 reagent (Kishida Chemical, Co. Ltd.) according to instructions by the manufacturer. A 10-μl aliquot of 5 mM WST-8 reagent solution was added to each well of the tissue culture plate and the plate was incubated at 37° C. for 4 h. The formazan pigment generated was detected by measuring the absorbance at 450 nm with a 96-well microplate reader (Nihon Molecular Devices, SpectraMax 190). The concentration of each compound that yields a growth rate corresponding to 50% of the growth of human leukemic cell line UT7/EPO-mpl observed in the presence of 10 ng/ml TPO (EC50T) and the maximal growth rate achieved by the same compound (efficacy), expressed by taking the value with human leukemic cell line UT7/EPO-mpl in the presence of 10 ng/ml TPO as 100% standard, are summarized in Table 9.

[3] = value in the presence of 10 ng/ml TPO taken as 100% standard, method of Assay Example 1

SMILES: CC1=NN(c2ccc(C)c(C)c2)C(=O)C1=C(C)NNC(=O)c1cccc(N)c1 [compound 74]
- EC50 (human TPO receptor [1]): 0.025 µg/mL
- Efficacy (%) (maximal growth rate) (human TPO receptor [1]; [3]): 77%

SMILES: CC1=NN(c2ccc(C)c(C)c2)C(=O)C1=C(C)NNC(=O)c1ccc(C(F)(F)F)cc1 [compound 75]
- EC50 (human TPO receptor [1]): 0.063 µg/mL
- Efficacy (%) (maximal growth rate) (human TPO receptor [1]; [3]): 89%

SMILES: CC1=NN(c2ccc(C)c(C)c2)C(=O)C1=C(C)NNC(=O)c1ccc(C(C)(C)C)cc1 [compound 76]
- EC50 (human TPO receptor [1]): 0.046 µg/mL
- Efficacy (%) (maximal growth rate) (human TPO receptor [1]; [3]): 79%

SMILES: CC1=NN(c2ccc(Cl)c(Cl)c2)C(=O)C1=C(C)NNC(=O)c1ccc(N)cc1 [compound 77]
- EC50 (human TPO receptor [1]): 0.0051 µg/mL
- Efficacy (%) (maximal growth rate) (human TPO receptor [1]; [3]): 78%

SMILES: CC1=NN(c2ccc(Cl)c(Cl)c2)C(=O)C1=C(C)NNC(=O)c1cccc(N)c1 [compound 78]
- EC50 (human TPO receptor [1]): 0.015 µg/mL
- Efficacy (%) (maximal growth rate) (human TPO receptor [1]; [3]): 69%

SMILES: CC1=NN(c2ccc(Cl)c(Cl)c2)C(=O)C1=C(C)NNC(=O)c1ccc(C(F)(F)F)cc1 [compound 79]
- EC50 (human TPO receptor [1]): 0.16 µg/mL
- Efficacy (%) (maximal growth rate) (human TPO receptor [1]; [3]): 81%

SMILES: CC1=NN(c2ccc(Cl)c(Cl)c2)C(=O)C1=C(C)NNC(=O)c1ccc(C(C)(C)C)cc1 [compound 80]
- EC50 (human TPO receptor [1]): 0.64 µg/mL
- Efficacy (%) (maximal growth rate) (human TPO receptor [1]; [3]): 71%

SMILES: CC1=NN(c2ccc(C(C)(C)C)cc2)C(=O)C1=C(C)NNC(=O)c1cccc(O)c1 [compound 81]
- EC50 (human TPO receptor [1]): 0.0072 µg/mL
- Efficacy (%) (maximal growth rate) (human TPO receptor [1]; [3]): 84%

SMILES: CC1=NN(c2ccc(C)c(C)c2)C(=O)C1=C(C)NNC(=O)c1cccc(O)c1 [compound 82]
- EC50 (human TPO receptor [1]): 0.026 µg/mL
- Efficacy (%) (maximal growth rate) (human TPO receptor [1]; [3]): 84%

SMILES: CC1=NN(c2ccc(Cl)c(Cl)c2)C(=O)C1=C(C)NNC(=O)c1cccc(O)c1 [compound 83]
- EC50 (human TPO receptor [1]; read-out: EC50 (ng/ml) (converted)): 14.5 nM
- Emax (human TPO receptor [1]; value in the presence of 10 ng/ml TPO taken as 100% standard, method of Assay Example 1, read-out: Efficacy (%) (maximal growth rate)): 78%

SMILES: CC1=NN(c2cccc([N+](=O)[O-])c2)C(=O)C1=C(C)NNC(=O)c1cccc([N+](=O)[O-])c1 [compound 84]
- EC50 (human TPO receptor [1]): 0.13 µg/mL
- Efficacy (%) (maximal growth rate) (human TPO receptor [1]; [3]): 109%

SMILES: CC1=NN(c2cccc([N+](=O)[O-])c2)C(=O)C1=C(C)NNC(=O)c1ccc(O)cc1O [compound 86]
- EC50 (human TPO receptor [1]): 0.021 µg/mL
- Efficacy (%) (maximal growth rate) (human TPO receptor [1]; [3]): 105%

SMILES: CC1=NN(c2ccccn2)C(=O)C1=C(C)NNC(=O)c1ccc(O)cc1O [compound 87]
- EC50 (human TPO receptor [1]): 0.6 µg/mL
- Efficacy (%) (maximal growth rate) (human TPO receptor [1]; [3]): 71%

SMILES: CC1=NN(c2cccc([N+](=O)[O-])c2)C(=O)C1=C(C)NNC(=O)c1ccc(C(C)(C)C)cc1 [compound 88]
- EC50 (human TPO receptor [1]): 0.13 µg/mL
- Efficacy (%) (maximal growth rate) (human TPO receptor [1]; [3]): 70%

SMILES: CC1=NN(c2cccc(C(F)(F)F)c2)C(=O)C1=C(C)NNC(=O)c1cccc(N)c1 [compound 89]
- EC50 (human TPO receptor [1]): 0.039 µg/mL
- Efficacy (%) (maximal growth rate) (human TPO receptor [1]; [3]): 68%

SMILES: CC1=NN(c2cccc(C(F)(F)F)c2)C(=O)C1=C(C)NNC(=O)c1ccc(N)cc1 [compound 90]
- EC50 (human TPO receptor [1]): 0.021 µg/mL
- Efficacy (%) (maximal growth rate) (human TPO receptor [1]; [3]): 76%

SMILES: CC1=NN(c2ccc(C(F)(F)F)cc2)C(=O)C1=C(C)NNC(=O)c1cccc(N)c1 [compound 91]
- EC50 (human TPO receptor [1]): 0.024 µg/mL
- Efficacy (%) (maximal growth rate) (human TPO receptor [1]; [3]): 81%

SMILES: CC1=NN(c2ccc(C(F)(F)F)cc2)C(=O)C1=C(C)NNC(=O)c1ccc(N)cc1 [compound 92]
- EC50 (human TPO receptor [1]): 0.0055 µg/mL
- Efficacy (%) (maximal growth rate) (human TPO receptor [1]; [3]): 82%

SMILES: CC1=NN(c2ccc(C)c(C)c2)C(=O)C1=CNNC(=O)c1ccc(O)cc1O [compound 93]
- EC50 (human TPO receptor [1]): 0.0043 µg/mL
- Efficacy (%) (maximal growth rate) (human TPO receptor [1]; [3]): 84%

SMILES: CC(NNC(=O)c1ccc(O)cc1O)=C1C(=O)N(c2ccc(C)c(C)c2)N=C1C(F)(F)F [compound 94]
- EC50T (concentration yielding 50% of the growth observed with 10 ng/ml TPO) (human TPO receptor [2]): 0.0033 µg/mL
- Efficacy (%) (maximal growth rate) (human TPO receptor [2]): 95%

SMILES: COC(=O)c1ccc(C(=O)NNC(C)=C2C(=O)N(c3ccc(C)c(C)c3)N=C2C(F)(F)F)cc1 [compound 95]
- EC50T (concentration yielding 50% of the growth observed with 10 ng/ml TPO) (human TPO receptor [2]): 0.052 µg/mL
- Efficacy (%) (maximal growth rate) (human TPO receptor [2]): 71%

SMILES: CC(NNC(=O)c1ccc(C(=O)O)cc1)=C1C(=O)N(c2ccc(C)c(C)c2)N=C1C(F)(F)F [compound 96]
- EC50T (concentration yielding 50% of the growth observed with 10 ng/ml TPO) (human TPO receptor [2]): 0.0033 µg/mL
- Efficacy (%) (maximal growth rate) (human TPO receptor [2]): 93%

SMILES: CC1=NN(c2ccc(C(C)(C)C)cc2)C(=O)C1=CNNC(=O)c1ccc(C(=O)O)cc1 [compound 97]
- EC50T (concentration yielding 50% of the growth observed with 10 ng/ml TPO) (human TPO receptor [2]): 0.025 µg/mL
- Efficacy (%) (maximal growth rate) (human TPO receptor [2]): 94%

SMILES: COC(=O)c1ccc(C(=O)NNC(C)=C2C(=O)N(c3ccc(C(C)(C)C)cc3)N=C2C)s1 [compound 98]
- EC50T (concentration yielding 50% of the growth observed with 10 ng/ml TPO) (human TPO receptor [2]): 0.031 µg/mL
- Efficacy (%) (maximal growth rate) (human TPO receptor [2]): 96%

SMILES: CC1=NN(c2ccc(C(C)(C)C)cc2)C(=O)C1=C(C)NNC(=O)c1ccc(C(=O)O)s1 [compound 99]
- EC50T (concentration yielding 50% of the growth observed with 10 ng/ml TPO) (human TPO receptor [2]): 0.0039 µg/mL
- Efficacy (%) (maximal growth rate) (human TPO receptor [2]): 110%

SMILES: CC1=NN(c2ccc3ccccc3n2)C(=O)C1=C(C)NNC(=O)c1ccc(C(=O)O)cc1 [compound 100]
- EC50T (concentration yielding 50% of the growth observed with 10 ng/ml TPO) (human TPO receptor [2]): 0.059 µg/mL
- Efficacy (%) (maximal growth rate) (human TPO receptor [2]): 107%

SMILES: COC(=O)c1ccc(C(=O)NNC(C)=C2C(=O)N(c3ccc(Cl)nn3)N=C2C)cc1 [compound 101]
- EC50T (concentration yielding 50% of the growth observed with 10 ng/ml TPO) (human TPO receptor [2]): 0.018 µg/mL
- Efficacy (%) (maximal growth rate) (human TPO receptor [2]): 100%

SMILES: CC1=NN(c2ccc(C(F)(F)F)cn2)C(=O)C1=C(C)NNC(=O)c1ccc(C(=O)O)cc1 [compound 102]
- EC50T (concentration yielding 50% of the growth observed with 10 ng/ml TPO) (human TPO receptor [2]): 0.069 µg/mL
- Efficacy (%) (maximal growth rate) (human TPO receptor [2]): 100%

SMILES: CC1=NN(c2ccc(C(C)(C)C)cc2)C(=O)C1=C(C)NNC(=O)c1ccc(-c2nnn[nH]2)cc1 [compound 103]
- Efficacy (%) (maximal growth rate) (human TPO receptor [2]): 90%
- EC50 (human TPO receptor [2]; read-out: EC50T (concentration yielding 50% of the growth observed with 10 ng/ml TPO) (converted)): 10.5 nM

— patent US8053453B2, “Pyrazolone compounds and thrombopoietin receptor activator” (Nissan Chemical Industries, Ltd., priority 2002, dated 2011)
